Results published in US9302999B2, “Substituted triazoles as herbicides” (E. I. DU PONT DE NEMOURS AND COMPANY, priority 2012, dated 2016).

Assays:
Type in all cases: in vivo
[1] = system: galium (catchweed bedstraw, Galium aparine); assay: Test C pre-/postemergence: galium
How it was run: (§1)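 Visual injury scored 0–100 (100 = complete control) against untreated controls after 13–15 greenhouse days. Surfactant-containing solvent formulations applied either to soil after sowing (loam/sand) or over 1- to 4-leaf plants, 2–18 cm tall.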

[2] = system: barnyardgrass (Echinochloa crus-galli); assay: Test A pre-/postemergence: barnyardgrass; conditions: for Barnyardgrass plant response rating: Postemergence; for Plant response rating, Barnyardgrass: Preemergence
How it was run: (§2)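 Each species received preemergence soil-directed spraying and, at the same time, postemergence treatment of seedlings 2–10 cm tall. Formulation: non-phytotoxic solvent mixture including surfactant. Response assessed visually about ten days on, relative to untreated controls, 0–100 scale.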

kochia (Kochia scoparia) = assay: Test C pre-/postemergence: kochia
How it was run: as §1

[3] = system: ragweed (common ragweed, Ambrosia elation); assay: Test C pre-/postemergence: ragweed
How it was run: as §1

rice (Oryza sativa) = assay: Test B flooded paddy: rice; conditions: Flood; 250 g ai/ha; applied to paddy water at 2-leaf stage; visually evaluated after 13 to 15 days
How it was run: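 At two leaves, seedlings received the test compound via the paddy water, pots having been flooded 3 cm over the soil surface and kept so. Greenhouse-held for 13 to 15 days, then judged by eye against controls on a scale running 0 (no effect) to 100 (complete control).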

corn (Zea mays) = assay: Test A pre-/postemergence: corn; conditions: for Corn plant response rating: Postemergence; for Plant response rating, Corn: Preemergence
How it was run: as §2

[4] = system: lambsquarters (Chenopodium album); assay: Test C pre-/postemergence: lambsquarters
How it was run: as §1

[5] = system: johnsongrass (Sorghum halepense); assay: Test C pre-/postemergence: johnsongrass
How it was run: as §1

[6] = system: morningglory (Ipomoea spp.); assay: Test A pre-/postemergence: morningglory
How it was run: as §2

[7] = system: velvetleaf (Abutilon theophrasti); assay: Test C pre-/postemergence: velvetleaf
How it was run: as §1

[8] = Postemergence, 31 g ai/ha, scale 0 to 100 (0 no effect, 100 complete control)
[9] = Postemergence, 62 g ai/ha, scale 0 to 100 (0 no effect, 100 complete control)
[10] = Postemergence, 125 g ai/ha, scale 0 to 100, 0 no effect, 100 complete control
[11] = Postemergence, 250 g ai/ha, scale 0 to 100
[12] = Preemergence, 31 g ai/ha, scale of 0 to 100, 0 is no effect, 100 is complete control
[13] = Preemergence, 62 g ai/ha, scale of 0 to 100, 0 is no effect, 100 is complete control
[14] = Preemergence, 125 g ai/ha, scale 0 to 100, 0 no effect, 100 complete control
[15] = Preemergence, 250 g ai/ha, scale 0 to 100, 0 no effect, 100 complete control
[16] = 125 g ai/ha, 0 to 100 scale, 0 is no effect, 100 is complete control
[17] = 500 g ai/ha, visual rating on 0 to 100 scale (0 no effect, 100 complete control), approximately ten days
[18] = 125 g ai/ha, 0 to 100 scale where 0 is no effect and 100 is complete control
[19] = 500 g ai/ha, 0 to 100 scale (0 no effect, 100 complete control)

Cc1nn(-c2ccc(C(F)(F)F)c(F)c2)nc1Oc1ccnc(C(F)(F)F)c1 [Compound 148]
80: Plant response rating, Galium [1, 8] | Plant response rating, Galium [1, 12] | Barnyardgrass plant response rating [2, 16] | Plant response rating, Kochia (kochia (Kochia scoparia); [8]) | Plant response rating, Johnsongrass [5, 13] | Plant response rating, Morningglory ([6]; Postemergence, 125 g ai/ha, 0 to 100 scale, 0 is no effect, 100 is complete control) | Plant response rating, Velvetleaf [7, 10] | Plant response rating, Velvetleaf [7, 15]
40: Plant response rating, Kochia (kochia (Kochia scoparia); [12]) | Plant response rating, Kochia (kochia (Kochia scoparia); [13]) | Corn plant response rating (corn (Zea mays); [17]) | Plant response rating, Morningglory ([6]; Preemergence, 125 g ai/ha, 0 to 100 scale where 0 is no effect and 100 is complete control)
45: Plant response rating, Ragweed [3, 13] | Plant response rating, Rice (0 to 100 scale, 0 is no effect, 100 is complete control) (rice (Oryza sativa))
98: Plant response rating, Lambsquarters [4, 8] | Plant response rating, Lambsquarters [4, 9] | Plant response rating, Lambsquarters [4, 10] | Plant response rating, Lambsquarters [4, 11] | Plant response rating, Johnsongrass [5, 11] | Plant response rating, Johnsongrass [5, 14] | Plant response rating, Johnsongrass [5, 15]
15: Plant response rating, Ragweed [3, 12] | Plant response rating, Lambsquarters [4, 12] | Plant response rating, Johnsongrass [5, 12] | Plant response rating, Velvetleaf [7, 12]
95: Plant response rating, Kochia (kochia (Kochia scoparia); [11]) | Plant response rating, Kochia (kochia (Kochia scoparia); [15])
55: Plant response rating, Ragweed [3, 14] | Plant response rating, Johnsongrass [5, 10] | Plant response rating, Velvetleaf [7, 13]
25: Plant response rating, Lambsquarters [4, 13]
90: Plant response rating, Galium [1, 9] | Plant response rating, Galium [1, 10] | Plant response rating, Galium [1, 11] | Barnyardgrass plant response rating [2, 17] | Plant response rating, Barnyardgrass [2, 18] | Plant response rating, Kochia (kochia (Kochia scoparia); [14]) | Morningglory plant response rating ([6]; Postemergence, 500 g ai/ha, visual rating on 0 to 100 scale (0 no effect, 100 complete control), approximately ten days) | Plant response rating, Morningglory ([6]; Preemergence, 500 g ai/ha, 0 to 100 scale (0 no effect, 100 complete control))
85: Plant response rating, Kochia (kochia (Kochia scoparia); [9]) | Plant response rating, Kochia (kochia (Kochia scoparia); [10]) | Plant response rating, Ragweed [3, 9] | Plant response rating, Ragweed [3, 10] | Plant response rating, Ragweed [3, 11] | Plant response rating, Lambsquarters [4, 15] | Plant response rating, Velvetleaf [7, 11]
65: Plant response rating, Ragweed [3, 8] | Plant response rating, Lambsquarters [4, 14]
100: Plant response rating, Galium [1, 13] | Plant response rating, Galium [1, 14] | Plant response rating, Galium [1, 15] | Plant response rating, Barnyardgrass [2, 19]
20: Corn plant response rating (corn (Zea mays); [16]) | Plant response rating, Corn (corn (Zea mays); [19]) | Plant response rating, Johnsongrass [5, 8] | Plant response rating, Johnsongrass [5, 9]
10: Plant response rating, Corn (corn (Zea mays); [18])
50: Plant response rating, Velvetleaf [7, 8] | Plant response rating, Velvetleaf [7, 9]
70: Plant response rating, Ragweed [3, 15] | Plant response rating, Velvetleaf [7, 14]
